What was measured:
[1] = target: Proto-oncogene tyrosine-protein kinase receptor Ret (Homo sapiens, UniProt P07949); assay: Inhibition of RET (unknown origin) incubated for 40 mins in presence of ATP by Kinase-glo luminescent assay
[2] = Metabolic stability in mouse liver microsomes assessed as intrinsic clearance in presence of NADPH by LC-MS/MS analysis; format: ADME, Microsome; conditions: read-out: CLH
[3] = Bioavailability in ICR (CD-1) mouse at 50 mg/kg, ip measured for 24 hrs by LC-MS/MS analysis; format: ADME, organism-based; conditions: in vivo, ip, 50 mg/kg, 24 h
[4] = Tmax in ICR (CD-1) mouse at 50 mg/kg, ip measured for 24 hrs by LC-MS/MS analysis; format: ADME, organism-based; conditions: in vivo
[5] = MRT (0 to t) in ICR (CD-1) mouse at 50 mg/kg, ip measured for 24 hrs by LC-MS/MS analysis; format: ADME, organism-based; conditions: in vivo
[6] = Metabolic stability in mouse liver microsomes assessed as half life in presence of NADPH by LC-MS/MS analysis; format: ADME, Microsome
[7] = Toxicity in athymic BALB/c nude mouse xenografted with human MDA-MB-231 cells assessed as reduction in body weight at 25 to 50 mg/kg/day, ip administered for 28 consecutive days; format: organism-based; conditions: in vivo, 672 h, dose 25-50 mg/kg/day, time 28 day
[8] = target: Tyrosine-protein kinase JAK2 (Homo sapiens, UniProt O60674); assay: Inhibition of JAK2 (unknown origin) incubated for 40 mins in presence of ATP by Kinase-glo luminescent assay
[9] = Half life in ICR (CD-1) mouse at 10 mg/kg, iv measured for 24 hrs by LC-MS/MS analysis; format: ADME, organism-based; conditions: in vivo
Histone deacetylase 4 = Histone deacetylase 4 (Homo sapiens, UniProt P56524); assay: Inhibition of HDAC4 (unknown origin) using Boc-Lys-(trifluoroacetyl)-AMC as substrate incubated for 30 mins by fluorescence based analysis
Histone deacetylase 8 = target: T1, Histone deacetylase 8 (Homo sapiens, UniProt Q9BY41); assay: Inhibition of HDAC8 (unknown origin) using Boc-Lys-(trifluoroacetyl)-AMC as substrate incubated for 30 mins by fluorescence based analysis
T1 sequence (Q9BY41 whole entry): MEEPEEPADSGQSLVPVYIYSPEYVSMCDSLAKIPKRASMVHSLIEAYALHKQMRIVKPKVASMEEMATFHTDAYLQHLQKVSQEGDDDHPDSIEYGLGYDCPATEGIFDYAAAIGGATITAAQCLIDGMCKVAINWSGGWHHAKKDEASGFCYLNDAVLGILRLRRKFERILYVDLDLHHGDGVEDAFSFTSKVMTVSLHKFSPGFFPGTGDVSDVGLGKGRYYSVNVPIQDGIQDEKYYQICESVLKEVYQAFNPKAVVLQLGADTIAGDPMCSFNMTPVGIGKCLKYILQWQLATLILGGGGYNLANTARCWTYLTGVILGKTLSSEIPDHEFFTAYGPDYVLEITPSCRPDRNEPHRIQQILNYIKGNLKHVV

GES1 = assay: Cytotoxicity against human GES1 cells at 1 uM incubated for 48 hrs by MTT assay; format: toxicity, cell-based; conditions: ges1, 48 h
[10] = Cmax in ICR (CD-1) mouse at 10 mg/kg, iv measured for 24 hrs by LC-MS/MS analysis; format: ADME, organism-based; parameters: time 24 hrs, dose 10 mg/kg, route iv; conditions: in vivo
[11] = Cmax in ICR (CD-1) mouse at 50 mg/kg, ip measured for 24 hrs by LC-MS/MS analysis; format: ADME, organism-based; parameters: time 24 hrs, dose 50 mg/kg, route ip; conditions: in vivo
Histone deacetylase 11 = target: T2, Histone deacetylase 11 (Homo sapiens, UniProt Q96DB2); assay: Inhibition of HDAC11 (unknown origin) using Ac-ETDKrnyr-AMC as substrate incubated for 30 mins by fluorescence based analysis
T2 sequence (Q96DB2 whole entry): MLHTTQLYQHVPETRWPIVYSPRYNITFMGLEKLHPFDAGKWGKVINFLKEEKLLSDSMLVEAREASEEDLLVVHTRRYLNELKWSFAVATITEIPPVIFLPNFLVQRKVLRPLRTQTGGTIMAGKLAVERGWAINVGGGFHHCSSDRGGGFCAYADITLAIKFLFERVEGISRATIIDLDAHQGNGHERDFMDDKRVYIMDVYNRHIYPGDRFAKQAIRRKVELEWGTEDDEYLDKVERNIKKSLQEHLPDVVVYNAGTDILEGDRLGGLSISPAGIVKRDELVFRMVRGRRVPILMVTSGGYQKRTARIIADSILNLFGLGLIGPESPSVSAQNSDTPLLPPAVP

[12] = MRT (0 to t) in ICR (CD-1) mouse at 10 mg/kg, iv measured for 24 hrs by LC-MS/MS analysis; format: ADME, organism-based; conditions: in vivo
[13] = target: T3, Receptor-type tyrosine-protein kinase FLT3 (Homo sapiens, UniProt P36888); assay: Inhibition of FLT3 (unknown origin) incubated for 40 mins in presence of ATP by Kinase-glo luminescent assay
T3 sequence (P36888 whole entry): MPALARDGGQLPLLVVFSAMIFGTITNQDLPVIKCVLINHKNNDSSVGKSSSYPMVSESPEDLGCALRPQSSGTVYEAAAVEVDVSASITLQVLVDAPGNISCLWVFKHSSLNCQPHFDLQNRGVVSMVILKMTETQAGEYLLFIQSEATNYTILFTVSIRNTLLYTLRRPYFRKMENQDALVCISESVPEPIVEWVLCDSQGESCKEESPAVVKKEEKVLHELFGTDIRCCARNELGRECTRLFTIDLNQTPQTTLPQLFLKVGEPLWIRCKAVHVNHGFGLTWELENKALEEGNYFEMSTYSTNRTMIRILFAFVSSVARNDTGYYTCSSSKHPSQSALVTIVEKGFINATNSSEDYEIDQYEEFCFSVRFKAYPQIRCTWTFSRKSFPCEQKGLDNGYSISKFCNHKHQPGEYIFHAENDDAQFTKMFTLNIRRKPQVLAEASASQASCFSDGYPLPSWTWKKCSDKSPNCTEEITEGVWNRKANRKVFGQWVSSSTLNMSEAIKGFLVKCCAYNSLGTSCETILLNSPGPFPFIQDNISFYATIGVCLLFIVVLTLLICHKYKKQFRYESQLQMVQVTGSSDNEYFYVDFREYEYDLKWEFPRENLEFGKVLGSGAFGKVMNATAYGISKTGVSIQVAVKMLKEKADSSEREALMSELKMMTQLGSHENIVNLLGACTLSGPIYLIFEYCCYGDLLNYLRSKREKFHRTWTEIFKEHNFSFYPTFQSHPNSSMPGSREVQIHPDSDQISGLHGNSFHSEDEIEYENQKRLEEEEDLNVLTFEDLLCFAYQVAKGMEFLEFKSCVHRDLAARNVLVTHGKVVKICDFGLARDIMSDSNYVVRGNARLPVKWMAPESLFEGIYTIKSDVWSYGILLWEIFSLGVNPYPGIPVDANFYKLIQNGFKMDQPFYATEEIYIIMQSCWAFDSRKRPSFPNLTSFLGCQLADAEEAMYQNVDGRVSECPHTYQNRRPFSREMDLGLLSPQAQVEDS

Chain of Proto-oncogene tyrosine-protein kinase receptor Ret (P07949 whole entry): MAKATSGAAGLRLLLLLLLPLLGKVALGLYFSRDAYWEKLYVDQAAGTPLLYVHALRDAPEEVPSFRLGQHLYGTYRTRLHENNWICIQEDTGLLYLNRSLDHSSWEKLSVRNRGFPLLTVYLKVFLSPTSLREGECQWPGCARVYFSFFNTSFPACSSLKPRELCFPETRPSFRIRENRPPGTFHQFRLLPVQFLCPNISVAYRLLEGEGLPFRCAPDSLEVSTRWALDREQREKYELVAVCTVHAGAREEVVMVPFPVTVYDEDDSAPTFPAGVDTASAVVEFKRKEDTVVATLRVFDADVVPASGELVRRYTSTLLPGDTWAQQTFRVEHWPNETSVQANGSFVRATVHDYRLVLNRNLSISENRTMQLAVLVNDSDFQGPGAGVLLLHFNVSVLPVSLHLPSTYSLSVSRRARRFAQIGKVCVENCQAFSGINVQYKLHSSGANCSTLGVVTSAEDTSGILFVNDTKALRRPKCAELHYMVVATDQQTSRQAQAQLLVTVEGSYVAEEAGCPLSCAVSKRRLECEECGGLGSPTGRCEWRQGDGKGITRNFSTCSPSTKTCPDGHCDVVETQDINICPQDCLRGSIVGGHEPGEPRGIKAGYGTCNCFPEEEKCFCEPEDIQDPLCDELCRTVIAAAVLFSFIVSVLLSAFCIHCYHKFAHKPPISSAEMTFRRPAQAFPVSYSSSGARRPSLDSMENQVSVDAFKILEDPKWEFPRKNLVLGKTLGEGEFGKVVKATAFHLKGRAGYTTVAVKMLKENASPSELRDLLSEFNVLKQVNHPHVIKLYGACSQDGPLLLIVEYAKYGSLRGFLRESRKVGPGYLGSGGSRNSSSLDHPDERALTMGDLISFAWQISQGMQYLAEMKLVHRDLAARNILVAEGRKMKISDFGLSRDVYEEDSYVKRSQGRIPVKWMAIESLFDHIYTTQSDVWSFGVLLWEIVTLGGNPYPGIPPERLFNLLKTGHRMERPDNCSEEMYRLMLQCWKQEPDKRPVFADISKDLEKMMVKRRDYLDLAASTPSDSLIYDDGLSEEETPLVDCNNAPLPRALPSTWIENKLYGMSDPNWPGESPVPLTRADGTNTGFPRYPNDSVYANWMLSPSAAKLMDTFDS
Chain of Histone deacetylase 4 (P56524 whole entry): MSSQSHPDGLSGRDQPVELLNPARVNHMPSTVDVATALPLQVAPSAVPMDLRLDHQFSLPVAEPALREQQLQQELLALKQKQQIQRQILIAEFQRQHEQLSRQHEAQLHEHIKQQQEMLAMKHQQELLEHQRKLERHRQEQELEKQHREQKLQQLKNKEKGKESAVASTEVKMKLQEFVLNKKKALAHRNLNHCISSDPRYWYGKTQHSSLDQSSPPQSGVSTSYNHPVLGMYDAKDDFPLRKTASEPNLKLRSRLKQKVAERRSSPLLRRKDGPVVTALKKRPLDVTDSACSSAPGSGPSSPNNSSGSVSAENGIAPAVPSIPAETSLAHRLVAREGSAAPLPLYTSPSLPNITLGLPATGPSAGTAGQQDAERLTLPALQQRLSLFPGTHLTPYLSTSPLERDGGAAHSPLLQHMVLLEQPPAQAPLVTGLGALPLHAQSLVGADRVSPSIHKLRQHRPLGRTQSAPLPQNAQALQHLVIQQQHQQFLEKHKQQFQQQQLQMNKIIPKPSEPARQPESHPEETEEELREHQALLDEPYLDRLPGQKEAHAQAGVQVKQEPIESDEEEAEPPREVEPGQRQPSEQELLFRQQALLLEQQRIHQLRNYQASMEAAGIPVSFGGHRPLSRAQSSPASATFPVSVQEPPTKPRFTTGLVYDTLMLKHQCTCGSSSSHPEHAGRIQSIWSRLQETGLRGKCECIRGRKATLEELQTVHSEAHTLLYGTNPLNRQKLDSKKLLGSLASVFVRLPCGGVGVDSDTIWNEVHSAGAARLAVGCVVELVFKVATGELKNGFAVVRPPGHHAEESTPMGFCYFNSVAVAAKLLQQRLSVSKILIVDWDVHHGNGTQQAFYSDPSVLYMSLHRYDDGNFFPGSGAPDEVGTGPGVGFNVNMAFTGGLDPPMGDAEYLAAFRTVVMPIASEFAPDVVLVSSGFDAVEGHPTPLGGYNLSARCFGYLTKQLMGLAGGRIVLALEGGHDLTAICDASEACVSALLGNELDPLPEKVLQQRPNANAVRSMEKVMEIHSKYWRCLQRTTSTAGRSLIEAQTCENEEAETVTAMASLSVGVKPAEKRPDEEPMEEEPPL
Chain of Tyrosine-protein kinase JAK2 (O60674 whole entry): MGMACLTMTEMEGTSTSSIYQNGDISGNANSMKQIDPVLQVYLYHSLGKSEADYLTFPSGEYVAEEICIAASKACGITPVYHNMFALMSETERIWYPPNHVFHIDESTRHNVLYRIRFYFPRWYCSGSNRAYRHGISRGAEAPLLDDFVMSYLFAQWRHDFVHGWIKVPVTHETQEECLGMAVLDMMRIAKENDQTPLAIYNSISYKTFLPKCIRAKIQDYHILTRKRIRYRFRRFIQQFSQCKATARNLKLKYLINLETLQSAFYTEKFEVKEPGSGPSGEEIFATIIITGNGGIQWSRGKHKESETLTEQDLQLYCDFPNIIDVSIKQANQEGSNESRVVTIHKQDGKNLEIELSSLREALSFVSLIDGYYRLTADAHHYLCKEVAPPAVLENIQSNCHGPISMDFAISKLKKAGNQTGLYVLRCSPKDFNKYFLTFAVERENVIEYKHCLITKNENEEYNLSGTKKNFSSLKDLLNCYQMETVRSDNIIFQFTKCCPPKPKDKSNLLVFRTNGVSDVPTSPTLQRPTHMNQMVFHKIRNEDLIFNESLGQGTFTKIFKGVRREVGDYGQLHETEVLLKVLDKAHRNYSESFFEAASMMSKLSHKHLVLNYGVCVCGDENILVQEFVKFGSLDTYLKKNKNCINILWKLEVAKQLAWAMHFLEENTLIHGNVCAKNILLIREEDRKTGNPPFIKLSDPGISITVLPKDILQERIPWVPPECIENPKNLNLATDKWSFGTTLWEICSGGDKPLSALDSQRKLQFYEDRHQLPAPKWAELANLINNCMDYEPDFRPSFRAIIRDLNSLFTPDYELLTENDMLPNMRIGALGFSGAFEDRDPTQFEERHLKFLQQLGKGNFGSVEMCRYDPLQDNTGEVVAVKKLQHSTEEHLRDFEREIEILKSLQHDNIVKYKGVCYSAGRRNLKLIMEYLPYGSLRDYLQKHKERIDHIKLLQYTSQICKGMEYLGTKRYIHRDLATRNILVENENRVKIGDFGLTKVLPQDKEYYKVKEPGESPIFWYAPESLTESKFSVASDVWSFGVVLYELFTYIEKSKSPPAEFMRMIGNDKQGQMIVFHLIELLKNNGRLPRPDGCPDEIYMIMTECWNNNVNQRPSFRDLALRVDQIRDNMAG

IC50 [1]: 47 nM | CLint scaled [2]: 146 mL/min/kg | F [3]: 151% | Tmax [4]: 0.19 h | MRT last at 24 h [5]: 2.18 h | half-life [6]: 0.625 h | IC50 [8]: 1.8 nM | t1/2 [9]: 1.49 h | IC50 (Histone deacetylase 4): > 5000 nM | IC50 (Histone deacetylase 8): 160 nM | Cmax [10]: 4730 ng/mL | Cmax [11]: 9560 ng/mL | IC50 (Histone deacetylase 11): > 5000 nM | MRT(t) [12]: 1.66 h | IC50 [13]: 10.9 nM
SMILES: Cc1cnc(Nc2ccc(OCCN3CCCC3)cc2)nc1Nc1ccc(C(=O)NO)cc1
Activity [7]: Non-Toxic | Activity (GES1): Non-Toxic
